Measurements from article PMC12587545, “Noncytotoxic polymyxin derivatives enhance antibiotic action against multidrug-resistant Gram-negative bacteria” (Antimicrobial Agents and Chemotherapy, 2025).
“And” between values parts separate entries of the source, which are not always exact repeats. Equal entries are not always repeated.

Tests used:
[1] = test system: MDR Gram-negative bacteria clinical isolates; experiment: Checkerboard assay, summary over strains; type: cell-based; settings: of all 14 clinical isolates; number (%)
Protocol: (§1) The interaction between the compounds and the antibiotics was evaluated using the fractional inhibitory concentration (FIC) index. FIC indices of ≤0.5 is synergistic, 0.5 < × ≤ 4 is additive, whereas >4 is antagonistic ([34]).
(§2) The antibiotic and compounds were serially diluted 2-fold in CAMHB along the x- and y-axis, respectively, on a 96-well plate that was subsequently incubated with equal volumes of bacterial inoculum overnight at 37°C. Wells containing only media were used as negative controls, and wells containing only bacteria were used as positive controls. Synergy was measured by the FIC index, which is the summation of the individual FICs of the antibiotic and the compound. The FIC is calculated by dividing the MIC of one agent in the presence of another by the MIC of the agent alone. Turbidity was confirmed with a Molecular Devices (United States) EMax Plus microplate reader at a wavelength of 590 nm. The FBS studies were conducted by following a previously published protocol ([29], [50]). The FBS was inactivated by heating at 56°C for 30 min with constant swirling.

K. pneumoniae = experiment: Checkerboard assay (antibiotic potentiation); type: cell-based, Klebsiella pneumoniae; settings: for Interpretation: antibiotic + compound 1; for MICantibiotic + compound: antibiotic MIC with 8 µg/mL (5 µM) compound 1; for MICantibiotic: antibiotic alone; for Potentiation: of antibiotic by 8 µg/mL (5 µM) compound 1
Protocol: as §1
(§3) Synergy was measured by the FIC index, which is the summation of the individual FICs of the antibiotic and the compound. The FIC is calculated by dividing the MIC of one agent in the presence of another by the MIC of the agent alone. […] The FBS studies were conducted by following a previously published protocol ([29], [50]). The FBS was inactivated by heating at 56°C for 30 min with constant swirling.

A. baumannii = experiment: Checkerboard assay (antibiotic potentiation); type: cell-based, Acinetobacter baumannii; parameters: key to FIC index: sum of FICs; ≤0.5 synergistic, 0.5–4 additive, >4 antagonistic; settings: for MICantibiotic: antibiotic alone
Protocol: (§4) The interaction between the compounds and the antibiotics was evaluated using the fractional inhibitory concentration (FIC) index. FIC indices of ≤0.5 is synergistic, 0.5 < × ≤ 4 is additive, whereas >4 is antagonistic ([34]). […] .
(§5) The bacterial isolates were acquired from ATCC or the Canadian Ward Surveillance (CANWARD) study ([56]). CANWARD isolates were collected from infected patients admitted to participating medical centers across Canada.
as §2

P. aeruginosa = experiment: Checkerboard assay (antibiotic potentiation); type: cell-based, Pseudomonas aeruginosa; settings: for MICantibiotic: antibiotic alone
Protocol: as §1, §3

E. cloacae = experiment: Checkerboard assay (antibiotic potentiation); type: cell-based, Enterobacter cloacae; settings: E. cloacae 121887 (colistin-resistant)
Protocol: as §4, §5, §2

E. coli = experiment: Checkerboard assay (antibiotic potentiation); type: cell-based, Escherichia coli; settings: for MICantibiotic + compound: antibiotic MIC with 8 µg/mL (5 µM) compound 1; for MICantibiotic: antibiotic alone; for Potentiation: of antibiotic by 8 µg/mL (5 µM) compound 1
Protocol: as §1, §3

[2] = K. pneumoniae 113250 (colistin-resistant)
[3] = A. baumannii 110193, antibiotic + compound 1
[4] = A. baumannii ATCC 17978, antibiotic + compound 1
[5] = P. aeruginosa 262-101856, antibiotic + compound 1
[6] = E. coli 94393 (colistin-resistant)
[7] = E. coli 94474 (colistin-resistant)

Compound: C[C@H]1COc2c(N3CCN(C)CC3)c(F)cc3c(=O)c(C(=O)O)cn1c23 [Levofloxacin]
- clinical isolates in which the antibiotic was synergized by compound 1 [1]: 5 (36%) strains
- Interpretation (K. pneumoniae; [2]): Additive (0.5 < × ≤ 4 is additive)
- MICantibiotic + compound (K. pneumoniae; [2]): 0.063 µg/mL
- MICantibiotic (K. pneumoniae; [2]): 0.063 µg/mL
- Potentiation (K. pneumoniae; [2]): 1 fold
- Interpretation (K. pneumoniae; K. pneumoniae 116381): Synergy (FIC indices of ≤0.5 is synergistic)
- MICantibiotic + compound (K. pneumoniae; K. pneumoniae 116381): 4 µg/mL
- MICantibiotic (K. pneumoniae; K. pneumoniae 116381): 256 µg/mL
- Potentiation (K. pneumoniae; K. pneumoniae 116381): 64 fold
- Interpretation (A. baumannii; A. baumannii 92247 (colistin-resistant), antibiotic + compound 1): Additive (0.5 < × ≤ 4 is additive)
- MICantibiotic + compound (A. baumannii; A. baumannii 92247 (colistin-resistant), antibiotic MIC with 4 µg/mL (2 µM) compound 1): 0.063 µg/mL
- MICantibiotic (A. baumannii; A. baumannii 92247 (colistin-resistant)): 0.063 µg/mL
- Potentiation (A. baumannii; A. baumannii 92247 (colistin-resistant), of antibiotic by 4 µg/mL (2 µM) compound 1): 1 fold
- FIC index (A. baumannii; [3]): 1.125
- Interpretation (A. baumannii; [3]): Additive (0.5 < × ≤ 4 is additive)
- MICantibiotic + compound (A. baumannii; A. baumannii 110193, antibiotic MIC with 4 µg/mL (2 µM) compound 1): 0.25 µg/mL
- MICantibiotic (A. baumannii; A. baumannii 110193): 0.25 µg/mL
- Potentiation (A. baumannii; A. baumannii 110193, of antibiotic by 4 µg/mL (2 µM) compound 1): 1 fold
- Interpretation (A. baumannii; A. baumannii AB027, antibiotic + compound 1): Additive (0.5 < × ≤ 4 is additive)
- MICantibiotic + compound (A. baumannii; A. baumannii AB027, antibiotic MIC with 4 µg/mL (2 µM) compound 1): 4 µg/mL
- MICantibiotic (A. baumannii; A. baumannii AB027): 8 µg/mL
- Potentiation (A. baumannii; A. baumannii AB027, of antibiotic by 4 µg/mL (2 µM) compound 1): 2 fold
- Interpretation (A. baumannii; A. baumannii AB031, antibiotic + compound 1): Additive (0.5 < × ≤ 4 is additive)
- MICantibiotic + compound (A. baumannii; A. baumannii AB031, antibiotic MIC with 4 µg/mL (2 µM) compound 1): 0.125 µg/mL
- MICantibiotic (A. baumannii; A. baumannii AB031): 0.25 µg/mL
- Potentiation (A. baumannii; A. baumannii AB031, of antibiotic by 4 µg/mL (2 µM) compound 1): 2 fold
- FIC index (A. baumannii; [4]): 0.650
- Interpretation (A. baumannii; [4]): Additive (0.5 < × ≤ 4 is additive)
- Interpretation (A. baumannii; A. baumannii ATCC 17978, antibiotic + compound 3): Additive (0.5 < × ≤ 4 is additive)
- MICantibiotic + compound (A. baumannii; A. baumannii ATCC 17978, antibiotic MIC with 8 µg/mL (5 µM) compound 3): 0.125 µg/mL
- MICantibiotic + compound (A. baumannii; A. baumannii ATCC 17978, antibiotic MIC with ¼ MIC (≤5 µM) of compound 1): 0.063 µg/mL
- MICantibiotic (A. baumannii; A. baumannii ATCC 17978): 0.125 µg/mL
- Potentiation (A. baumannii; A. baumannii ATCC 17978, of antibiotic by 8 µg/mL (5 µM) compound 3): 1 fold
- Potentiation (A. baumannii; A. baumannii ATCC 17978, of antibiotic by ¼ MIC (≤5 µM) of compound 1): 2 fold
- Interpretation (P. aeruginosa; P. aeruginosa 259-96916, antibiotic + compound 1): Synergy (FIC indices of ≤0.5 is synergistic)
- MICantibiotic + compound (P. aeruginosa; P. aeruginosa 259-96916, antibiotic MIC with 8 µg/mL (5 µM) compound 1): 16 µg/mL
- MICantibiotic (P. aeruginosa; P. aeruginosa 259-96916): 512 µg/mL
- Potentiation (P. aeruginosa; P. aeruginosa 259-96916, of antibiotic by 8 µg/mL (5 µM) compound 1): 32 fold
- FIC index (P. aeruginosa; [5]): x < 0.125
- Interpretation (P. aeruginosa; [5]): Synergy (FIC indices of ≤0.5 is synergistic)
- MICantibiotic + compound (P. aeruginosa; P. aeruginosa 262-101856, antibiotic MIC with 8 µg/mL (5 µM) compound 1): 4 µg/mL
- MICantibiotic (P. aeruginosa; P. aeruginosa 262-101856): >64 µg/mL
- Potentiation (P. aeruginosa; P. aeruginosa 262-101856, of antibiotic by 8 µg/mL (5 µM) compound 1): ≥32-fold
- Interpretation (P. aeruginosa; P. aeruginosa 264-105354, antibiotic + compound 1): Synergy (FIC indices of ≤0.5 is synergistic)
- MICantibiotic + compound (P. aeruginosa; P. aeruginosa 264-105354, antibiotic MIC with 8 µg/mL (5 µM) compound 1): 4 µg/mL
- MICantibiotic (P. aeruginosa; P. aeruginosa 264-105354): 64 µg/mL
- Potentiation (P. aeruginosa; P. aeruginosa 264-105354, of antibiotic by 8 µg/mL (5 µM) compound 1): 16 fold
- Interpretation (P. aeruginosa; P. aeruginosa 101243 (colistin-resistant), antibiotic + compound 1): Synergy (FIC indices of ≤0.5 is synergistic)
- MICantibiotic + compound (P. aeruginosa; P. aeruginosa 101243 (colistin-resistant), antibiotic MIC with 8 µg/mL (5 µM) compound 1): 16 µg/mL
- MICantibiotic (P. aeruginosa; P. aeruginosa 101243 (colistin-resistant)): 128 µg/mL
- Potentiation (P. aeruginosa; P. aeruginosa 101243 (colistin-resistant), of antibiotic by 8 µg/mL (5 µM) compound 1): 8 fold
- Interpretation (P. aeruginosa; P. aeruginosa 114228 (colistin-resistant), antibiotic + compound 1): Additive (0.5 < × ≤ 4 is additive)
- MICantibiotic + compound (P. aeruginosa; P. aeruginosa 114228 (colistin-resistant), antibiotic MIC with 8 µg/mL (5 µM) compound 1): 2 µg/mL
- MICantibiotic (P. aeruginosa; P. aeruginosa 114228 (colistin-resistant)): 2 µg/mL
- Potentiation (P. aeruginosa; P. aeruginosa 114228 (colistin-resistant), of antibiotic by 8 µg/mL (5 µM) compound 1): 1 fold
- Interpretation (P. aeruginosa; P. aeruginosa PAO1, antibiotic + compound 1): Synergy (FIC indices of ≤0.5 is synergistic)
- Interpretation (P. aeruginosa; P. aeruginosa PAO1, antibiotic + compound 3): Additive (0.5 < × ≤ 4 is additive)
- MICantibiotic + compound (P. aeruginosa; P. aeruginosa PAO1, antibiotic MIC with 8 µg/mL (5 µM) compound 1): 0.125 µg/mL
- MICantibiotic + compound (P. aeruginosa; P. aeruginosa PAO1, antibiotic MIC with 8 µg/mL (5 µM) compound 3): 1 µg/mL
- MICantibiotic (P. aeruginosa; P. aeruginosa PAO1): 1 µg/mL and 0.5 µg/mL
- Potentiation (P. aeruginosa; P. aeruginosa PAO1, of antibiotic by 8 µg/mL (5 µM) compound 1): 4 fold
- Potentiation (P. aeruginosa; P. aeruginosa PAO1, of antibiotic by 8 µg/mL (5 µM) compound 3): 1 fold
- Interpretation (E. cloacae; antibiotic + compound 1): Additive (0.5 < × ≤ 4 is additive)
- MICantibiotic + compound (E. cloacae; antibiotic MIC with 8 µg/mL (5 µM) compound 1): 16 µg/mL
- MICantibiotic (E. cloacae; antibiotic alone): 16 µg/mL
- Potentiation (E. cloacae; of antibiotic by 8 µg/mL (5 µM) compound 1): 1 fold
- FIC index (E. coli; E. coli 94393 (colistin-resistant), antibiotic + compound 1): x < 0.563
- MICantibiotic + compound (E. coli; [6]): 1 µg/mL
- MICantibiotic (E. coli; [6]): >2 µg/mL
- Potentiation (E. coli; [6]): ≥4-fold
- Interpretation (E. coli; E. coli 94474 (colistin-resistant), antibiotic + compound 1): Additive (0.5 < × ≤ 4 is additive)
- MICantibiotic + compound (E. coli; [7]): 8 µg/mL
- MICantibiotic (E. coli; [7]): 16 µg/mL
- Potentiation (E. coli; [7]): 2 fold
